# Data reported in patent publication US12144886B2, “Perineural administration of resiniferatoxin for treatment of maladaptive pain” (Sorrento Therapeutics, Inc., priority 2018, dated 2024).
# Test system: declawed cat with maladaptive pain
# Experiment: Feline Musculoskeletal Pain Index (FMPI) in a declawed cat after perineural RTX nerve blocks
# Format: in vivo
# Parameters: key to FMPI Q5 (jumping down) / FMPI Q6 (climbing upstairs) / FMPI Q7 (going down stairs) / FMPI Q8 (playing with/chasing toys) / FMPI Q9 (playing and interacting with other pets) / FMPI Q10 (getting up from a resting position) / FMPI Q11 (lying or sitting down) / FMPI Q12 (stretching) / FMPI Q13 (grooming) / FMPI Q14 (interacting with the owner) / FMPI Q15 (being touched or handled) / FMPI Q16 (eating) / FMPI Q17 (using the litter box) / FMPI Q1 (walking) / FMPI Q2 (running) / FMPI Q3 (jumping up) / FMPI Q4 (jumping up to kitchen counter height): 4 = normal; 3 = near normal; 2 = Moderately worse than normal; 1 = Barely, or with great effort; 0 = not at all
# Settings: one cat, 2.5 μg/forelimb perineural
# Description: Each dose of 5 μg/cat or 2.5 μg/forelimb will be formulated in 1 cc insulin syringes by diluting 0.1 mL: (2.5 μg) of RTX in 0.9 mL sterile saline for injection immediately before use. For treatment, a total of 1.0 mL (2.5 μg) will be injected as nerve blocks, distributed equally (0.25 ml per injection site) over 4 injection sites for each forelimb.
# Four point nerve blocks are performed by injection of 0.25 mL RTX each into the 1) superficial branches of the radial nerve, 2) dorsal branch of the ulnar nerve, 3) median nerve and superficial branch of the palmar branch of the ulnar nerve, and 4) deep branch of the palmar branch of the ulnar nerve. The nerve blocks for each forelimb are performed following a published technique for locoregional block of the manus in cats (Enomoto et al. (2016) J. Feline Med. Surg. 18:838-845). To block the superficial branches of the radial nerve (RSbr nn), the limb is positioned with the dorsal aspect facing upwards and the carpus in 180° of extension. A 25 G×⅝-inch needle is inserted subcutaneously (SC) from a point at the center of the limb at the level of the antebrachiocarpal joint. The needle is advanced approximately 10 mm SC at a 10-20° angle to the long axis of the limb with the bevel facing up. Once the tip of the needle is 3-5 mm from the confluence point of the accessory cephalic and cephalic veins, the injection is made (0.25 mL). To block the dorsal branch of the ulnar nerve (UDbr n), the limb is positioned with the lateral aspect facing upwards. A point is located lateral to and at the same level as the accessory carpal bone (ACb), positioned between the ACb and the styloid process of the ulna (SpU). A 25 G×⅝-inch needle is inserted SC distal to proximal, so the tip lies at the midpoint of the groove formed between ACb and the SpU, and then the injection is made (0.25 mL). To block the median nerve (M n) and superficial branch of the palmar branch of the ulnar nerve (UPbrS n), the limb is positioned with the palmar aspect facing upwards. A 25 G×⅝-inch needle is inserted SC at the distal border of the carpal pad and approximately 5 mm lateral to it, perpendicular to the long axis of the metacarpus, with the bevel facing up. The needle is inserted SC until the point is located two-thirds of the distance from the lateral aspect of the limb to the medial aspect. Two-thirds of the injectate volume is deposited at this point and the remaining volume is injected while the needle is withdrawn (0.25 mL). Gentle massage is applied to the injected volume under the skin for 5 seconds. To block the deep branch of the palmar branch of the ulnar nerve (UPbrDp n), the limb is positioned with the palmar aspect facing upwards. A 25 G×⅝-inch needle is inserted almost perpendicular to the ACb in a mediolateral direction such that the needle contacts the medial palmar aspect of the midpoint of the ACb with the bevel facing up. The needle is then redirected dorsally and advanced on the medial side of the ACb 2-3 mm until it penetrates the flexor retinaculum, and then the injection is made (0.25 mL).
# The effectiveness of the injection with RTX is assessed at days 3, 7, and 14 using owner videography for qualitative assessment (jumping, manipulation of the limb), and cats will also be evaluated using the Feline Musculoskeletal Pain Index (FMPI) and the Client Specific Outcome Measure (CSOM).
# For FMPI, cats are scored for 17 attributes designated Q1-Q17 using a scale of 0-4, where 0=not at all, 1=barely or with great effort, 2=moderately worse than normal, 3=near normal, and 4=normal. The total FMPI score is the sum of scores for each question. Higher totals indicate less impairment with a possible range of (0-68). For analysis, total score or percent possible can be used. […]
smiles,measurement,setting,value
"C=C(C)[C@]12C[C@@H](C)[C@@]34O[C@](Cc5ccccc5)(O[C@@H]1[C@@H]3C=C(COC(=O)Cc1ccc(O)c(OC)c1)C[C@]1(O)C(=O)C(C)=C[C@@H]41)O2 [RTX, resiniferatoxin]",FMPI % poss,Day 0 (baseline),0.69
same,FMPI Q1 (walking),Day 0 (baseline),2
same,FMPI Q2 (running),Day 0 (baseline),1
same,FMPI Q3 (jumping up),Day 0 (baseline),3
same,FMPI Q4 (jumping up to kitchen counter height),Day 0 (baseline),0
same,FMPI Q5 (jumping down),Day 0 (baseline),2
same,FMPI Q6 (climbing upstairs),Day 0 (baseline),4
same,FMPI Q7 (going down stairs),Day 0 (baseline),4
same,FMPI Q8 (playing with/chasing toys),Day 0 (baseline),3
same,FMPI Q9 (playing and interacting with other pets),Day 0 (baseline),2
same,FMPI Q10 (getting up from a resting position),Day 0 (baseline),4
same,FMPI Q11 (lying or sitting down),Day 0 (baseline),4
same,FMPI Q12 (stretching),Day 0 (baseline),3
same,FMPI Q13 (grooming),Day 0 (baseline),3
same,FMPI Q14 (interacting with the owner),Day 0 (baseline),3
same,FMPI Q15 (being touched or handled),Day 0 (baseline),2
same,FMPI Q16 (eating),Day 0 (baseline),4
same,FMPI Q17 (using the litter box),Day 0 (baseline),3
same,FMPI Total score (possible range 0-68),Day 0 (baseline),47
same,FMPI % poss,Day 3,0.71
same,FMPI Q1 (walking),Day 3,3
same,FMPI Q2 (running),Day 3,2
same,FMPI Q3 (jumping up),Day 3,3
same,FMPI Q4 (jumping up to kitchen counter height),Day 3,2
same,FMPI Q5 (jumping down),Day 3,3
same,FMPI Q6 (climbing upstairs),Day 3,*3
same,FMPI Q7 (going down stairs),Day 3,*3
same,FMPI Q8 (playing with/chasing toys),Day 3,3
same,FMPI Q9 (playing and interacting with other pets),Day 3,*1
same,FMPI Q10 (getting up from a resting position),Day 3,4
same,FMPI Q11 (lying or sitting down),Day 3,4
same,FMPI Q12 (stretching),Day 3,*2
same,FMPI Q13 (grooming),Day 3,3
same,FMPI Q14 (interacting with the owner),Day 3,3
same,FMPI Q15 (being touched or handled),Day 3,2
same,FMPI Q16 (eating),Day 3,4
same,FMPI Q17 (using the litter box),Day 3,3
same,FMPI Total score (possible range 0-68),Day 3,48
same,FMPI % poss,Day 7,0.81
same,FMPI Q1 (walking),Day 7,3
same,FMPI Q2 (running),Day 7,3
same,FMPI Q3 (jumping up),Day 7,3
same,FMPI Q4 (jumping up to kitchen counter height),Day 7,3
same,FMPI Q5 (jumping down),Day 7,3
same,FMPI Q6 (climbing upstairs),Day 7,4
same,FMPI Q7 (going down stairs),Day 7,4
same,FMPI Q8 (playing with/chasing toys),Day 7,3
same,FMPI Q9 (playing and interacting with other pets),Day 7,2
same,FMPI Q10 (getting up from a resting position),Day 7,4
same,FMPI Q11 (lying or sitting down),Day 7,4
same,FMPI Q12 (stretching),Day 7,3
same,FMPI Q13 (grooming),Day 7,3
same,FMPI Q14 (interacting with the owner),Day 7,3
same,FMPI Q15 (being touched or handled),Day 7,3
same,FMPI Q16 (eating),Day 7,4
same,FMPI Q17 (using the litter box),Day 7,3
same,FMPI Total score (possible range 0-68),Day 7,55
same,FMPI % poss,Day 14,0.84
same,FMPI Q1 (walking),Day 14,3
same,FMPI Q2 (running),Day 14,3
same,FMPI Q3 (jumping up),Day 14,4
same,FMPI Q4 (jumping up to kitchen counter height),Day 14,3
same,FMPI Q5 (jumping down),Day 14,3
same,FMPI Q6 (climbing upstairs),Day 14,4
same,FMPI Q7 (going down stairs),Day 14,4
same,FMPI Q8 (playing with/chasing toys),Day 14,3
same,FMPI Q9 (playing and interacting with other pets),Day 14,3
same,FMPI Q10 (getting up from a resting position),Day 14,4
same,FMPI Q11 (lying or sitting down),Day 14,4
same,FMPI Q12 (stretching),Day 14,3
same,FMPI Q13 (grooming),Day 14,3
same,FMPI Q14 (interacting with the owner),Day 14,3
same,FMPI Q15 (being touched or handled),Day 14,3
same,FMPI Q16 (eating),Day 14,4
same,FMPI Q17 (using the litter box),Day 14,3
same,FMPI Total score (possible range 0-68),Day 14,57
same,FMPI % poss,Screening (baseline),0.69
same,FMPI Q1 (walking),Screening (baseline),2
same,FMPI Q2 (running),Screening (baseline),1
same,FMPI Q3 (jumping up),Screening (baseline),3
same,FMPI Q4 (jumping up to kitchen counter height),Screening (baseline),0
same,FMPI Q5 (jumping down),Screening (baseline),2
same,FMPI Q6 (climbing upstairs),Screening (baseline),4
same,FMPI Q7 (going down stairs),Screening (baseline),4
same,FMPI Q8 (playing with/chasing toys),Screening (baseline),3
same,FMPI Q9 (playing and interacting with other pets),Screening (baseline),2
same,FMPI Q10 (getting up from a resting position),Screening (baseline),4
same,FMPI Q11 (lying or sitting down),Screening (baseline),4
same,FMPI Q12 (stretching),Screening (baseline),3
same,FMPI Q13 (grooming),Screening (baseline),3
same,FMPI Q14 (interacting with the owner),Screening (baseline),3
same,FMPI Q15 (being touched or handled),Screening (baseline),2
same,FMPI Q16 (eating),Screening (baseline),4
same,FMPI Q17 (using the litter box),Screening (baseline),3
same,FMPI Total score (possible range 0-68),Screening (baseline),47
